{
  "source": "ChEMBL document CHEMBL1131583",
  "about": "“Structure-based design and synthesis of lipophilic 2,4-diamino-6-substituted quinazolines and their evaluation as inhibitors of dihydrofolate reductases and potential antitumor agents” (J Med Chem, 1998)",
  "data": [
    {"test_system": "not listed separately", "experiment": "Partition coefficient (logP)", "type": "physicochemical", "details": "octanol/water", "values": [
      {"smiles": "COc1ccc(OC)c(CN(C)c2cnc3nc(N)nc(N)c3c2)c1", "logP": 1.87},
      {"smiles": "COc1ccc(OC)c(CNc2cnc3nc(N)nc(N)c3c2)c1", "logP": 1.32},
      {"smiles": "COc1cc(CNc2cnc3nc(N)nc(N)c3c2)cc(OC)c1OC", "logP": 0.89},
      {"smiles": "COc1cc(CN(C)c2cnc3nc(N)nc(N)c3c2)cc(OC)c1", "logP": 1.87}
    ]},
    {"molecular_target": "T1, Dihydrofolate reductase (Lactobacillus casei, UniProt P00381)", "T1 sequence (P00381 whole entry)": "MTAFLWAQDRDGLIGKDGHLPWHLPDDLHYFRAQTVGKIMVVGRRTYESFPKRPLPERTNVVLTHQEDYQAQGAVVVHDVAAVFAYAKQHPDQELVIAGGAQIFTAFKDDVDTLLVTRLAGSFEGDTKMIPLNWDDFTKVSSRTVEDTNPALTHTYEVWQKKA", "experiment": "Inhibitory activity against Dihydrofolate reductase from Lactobacillus casei ( lcDHFR)", "design": "species or system Lacticaseibacillus casei", "details": "not given", "units": {"IC50": "nM"}, "values": [
      {"smiles": "COc1cc(CN(C)c2ccc3nc(N)nc(N)c3c2)cc(OC)c1", "IC50": 37},
      {"smiles": "COc1ccc(OC)c(CN(C)c2ccc3nc(N)nc(N)c3c2)c1", "IC50": 130}
    ]},
    {"molecular_target": "T2, Bifunctional dihydrofolate reductase-thymidylate synthase (Toxoplasma gondii, UniProt Q07422)", "T2 sequence (Q07422 whole entry)": "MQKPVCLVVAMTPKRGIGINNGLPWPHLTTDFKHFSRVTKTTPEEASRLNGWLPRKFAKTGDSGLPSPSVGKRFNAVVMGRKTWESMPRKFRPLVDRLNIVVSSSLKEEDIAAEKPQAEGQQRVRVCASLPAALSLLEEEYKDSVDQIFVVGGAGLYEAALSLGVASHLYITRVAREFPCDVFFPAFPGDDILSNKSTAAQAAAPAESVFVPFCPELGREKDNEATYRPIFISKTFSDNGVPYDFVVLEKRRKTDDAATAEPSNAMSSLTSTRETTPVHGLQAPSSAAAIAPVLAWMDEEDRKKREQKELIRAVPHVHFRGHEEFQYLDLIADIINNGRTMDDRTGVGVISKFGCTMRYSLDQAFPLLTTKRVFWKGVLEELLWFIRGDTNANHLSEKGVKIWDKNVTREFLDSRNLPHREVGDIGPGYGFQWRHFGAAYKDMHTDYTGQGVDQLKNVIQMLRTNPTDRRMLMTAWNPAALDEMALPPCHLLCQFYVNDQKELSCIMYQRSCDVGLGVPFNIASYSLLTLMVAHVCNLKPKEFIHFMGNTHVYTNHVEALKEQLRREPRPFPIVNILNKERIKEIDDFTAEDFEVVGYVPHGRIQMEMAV", "experiment": "Inhibition of recombinant Dihydrofolate reductase from Toxoplasma gondii (tgDHFR)", "details": "not given", "units": {"IC50": "nM"}, "values": [
      {"smiles": "COc1cc(CN(C)c2ccc3nc(N)nc(N)c3c2)cc(OC)c1", "IC50": 4.7},
      {"smiles": "COc1cc(CNc2ccc3nc(N)nc(N)c3c2)cc(OC)c1OC", "IC50": 920},
      {"smiles": "COc1cc(OC)c(OC)cc1CNc1ccc2nc(N)nc(N)c2c1", "IC50": 540},
      {"smiles": "COc1ccc(CN(C)c2ccc3nc(N)nc(N)c3c2)c(OC)c1", "IC50": 3.9},
      {"smiles": "COc1ccc(CNc2ccc3nc(N)nc(N)c3c2)c(OC)c1", "IC50": 780},
      {"smiles": "COc1ccc(CNc2ccc3nc(N)nc(N)c3c2)c(OC)c1OC", "IC50": 810},
      {"smiles": "COc1cc(CNc2ccc3nc(N)nc(N)c3c2)cc(OC)c1", "IC50": 840},
      {"smiles": "COc1ccc(OC)c(CNc2ccc3nc(N)nc(N)c3c2)c1", "IC50": 1100},
      {"smiles": "COc1ccc(CN(C)c2ccc3nc(N)nc(N)c3c2)c(OC)c1OC", "IC50": 5.4},
      {"smiles": "COc1ccc(OC)c(CN(C)c2ccc3nc(N)nc(N)c3c2)c1", "IC50": 3.9}
    ]},
    {"molecular_target": "T2, Bifunctional dihydrofolate reductase-thymidylate synthase", "experiment": "Inhibitory activity against recombinant Dihydrofolate reductase from Toxoplasma gondii (tgDHFR)", "details": "not given", "units": {"IC50": "nM"}, "values": [
      {"smiles": "Nc1nc(N)c2cc(NCc3ccccc3)ccc2n1", "IC50": 1400}
    ]},
    {"molecular_target": "T3, Dihydrofolate reductase (Rattus norvegicus, UniProt Q920D2)", "T3 sequence (Q920D2 whole entry)": "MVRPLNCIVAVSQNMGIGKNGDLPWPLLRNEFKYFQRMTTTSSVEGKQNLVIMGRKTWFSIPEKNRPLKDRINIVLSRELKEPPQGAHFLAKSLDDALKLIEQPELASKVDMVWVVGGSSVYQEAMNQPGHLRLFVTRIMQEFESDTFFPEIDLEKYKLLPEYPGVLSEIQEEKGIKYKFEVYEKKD", "experiment": "Inhibitory activity against Dihydrofolate reductase from rat liver (rlDHFR)", "details": "not given", "units": {"IC50": "nM"}, "values": [
      {"smiles": "COc1cc(CN(C)c2ccc3nc(N)nc(N)c3c2)cc(OC)c1", "IC50": 8.2},
      {"smiles": "COc1cc(CNc2ccc3nc(N)nc(N)c3c2)cc(OC)c1OC", "IC50": 900},
      {"smiles": "COc1cc(OC)c(CNc2ccc3nc(N)nc(N)c3c2)c(OC)c1", "IC50": 22700},
      {"smiles": "CN(Cc1cccc2c1CCCC2)c1ccc2nc(N)nc(N)c2c1", "IC50": 17},
      {"smiles": "COc1cc(OC)c(OC)cc1CNc1ccc2nc(N)nc(N)c2c1", "IC50": 1600},
      {"smiles": "Nc1nc(N)c2cc(NCc3ccccc3)ccc2n1", "IC50": 660},
      {"smiles": "COc1ccc(CN(C)c2ccc3nc(N)nc(N)c3c2)c(OC)c1", "IC50": 43},
      {"smiles": "COc1ccc(CNc2ccc3nc(N)nc(N)c3c2)c(OC)c1", "IC50": 1200},
      {"smiles": "COc1ccc(CNc2ccc3nc(N)nc(N)c3c2)c(OC)c1OC", "IC50": 1300},
      {"smiles": "COc1cc(CNc2ccc3nc(N)nc(N)c3c2)cc(OC)c1", "IC50": 840},
      {"smiles": "COc1ccc(OC)c(CNc2ccc3nc(N)nc(N)c3c2)c1", "IC50": 1100},
      {"smiles": "COc1ccc(CN(C)c2ccc3nc(N)nc(N)c3c2)c(OC)c1OC", "IC50": 19}
    ]},
    {"molecular_target": "T4, Dihydrofolate reductase (Pneumocystis carinii, UniProt P16184)", "T4 sequence (P16184 whole entry)": "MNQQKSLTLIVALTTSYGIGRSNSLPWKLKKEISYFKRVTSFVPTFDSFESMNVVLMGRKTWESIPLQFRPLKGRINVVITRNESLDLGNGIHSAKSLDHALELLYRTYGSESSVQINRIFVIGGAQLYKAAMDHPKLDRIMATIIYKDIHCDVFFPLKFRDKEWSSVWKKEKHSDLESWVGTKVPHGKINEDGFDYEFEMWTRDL", "details": "not given", "units": {"IC50": "nM"}, "values": [
      {"smiles": "COc1cc(CN(C)c2ccc3nc(N)nc(N)c3c2)cc(OC)c1", "IC50": 23.8},
      {"smiles": "COc1cc(CNc2ccc3nc(N)nc(N)c3c2)cc(OC)c1OC", "IC50": 6800},
      {"smiles": "COc1cc(OC)c(CNc2ccc3nc(N)nc(N)c3c2)c(OC)c1", "IC50": 116000},
      {"smiles": "CN(Cc1cccc2c1CCCC2)c1ccc2nc(N)nc(N)c2c1", "IC50": 17},
      {"smiles": "COc1cc(OC)c(OC)cc1CNc1ccc2nc(N)nc(N)c2c1", "IC50": 5400},
      {"smiles": "Nc1nc(N)c2cc(NCc3ccccc3)ccc2n1", "IC50": 8700},
      {"smiles": "COc1ccc(CN(C)c2ccc3nc(N)nc(N)c3c2)c(OC)c1", "IC50": 100},
      {"smiles": "COc1ccc(CNc2ccc3nc(N)nc(N)c3c2)c(OC)c1", "IC50": 4400},
      {"smiles": "COc1ccc(CNc2ccc3nc(N)nc(N)c3c2)c(OC)c1OC", "IC50": 4900},
      {"smiles": "COc1cc(CNc2ccc3nc(N)nc(N)c3c2)cc(OC)c1", "IC50": 2200},
      {"smiles": "COc1ccc(OC)c(CNc2ccc3nc(N)nc(N)c3c2)c1", "IC50": 4600},
      {"smiles": "COc1ccc(CN(C)c2ccc3nc(N)nc(N)c3c2)c(OC)c1OC", "IC50": 52},
      {"smiles": "COc1ccc(OC)c(CN(C)c2ccc3nc(N)nc(N)c3c2)c1", "IC50": 87}
    ]},
    {"molecular_target": "T1, Dihydrofolate reductase", "details": "not given", "units": {"IC50": "nM"}, "values": [
      {"smiles": "COc1cc(CNc2ccc3nc(N)nc(N)c3c2)cc(OC)c1OC", "IC50": 2800},
      {"smiles": "COc1cc(OC)c(CNc2ccc3nc(N)nc(N)c3c2)c(OC)c1", "IC50": 37000},
      {"smiles": "CN(Cc1cccc2c1CCCC2)c1ccc2nc(N)nc(N)c2c1", "IC50": 21},
      {"smiles": "COc1cc(OC)c(OC)cc1CNc1ccc2nc(N)nc(N)c2c1", "IC50": 1600},
      {"smiles": "Nc1nc(N)c2cc(NCc3ccccc3)ccc2n1", "IC50": 2700},
      {"smiles": "COc1ccc(CN(C)c2ccc3nc(N)nc(N)c3c2)c(OC)c1", "IC50": 120},
      {"smiles": "COc1ccc(CNc2ccc3nc(N)nc(N)c3c2)c(OC)c1", "IC50": 2100},
      {"smiles": "COc1ccc(CNc2ccc3nc(N)nc(N)c3c2)c(OC)c1OC", "IC50": 2000},
      {"smiles": "COc1cc(CNc2ccc3nc(N)nc(N)c3c2)cc(OC)c1", "IC50": 2300},
      {"smiles": "COc1ccc(OC)c(CNc2ccc3nc(N)nc(N)c3c2)c1", "IC50": 3000},
      {"smiles": "COc1ccc(CN(C)c2ccc3nc(N)nc(N)c3c2)c(OC)c1OC", "IC50": 59},
      {"smiles": "COc1cc(NCc2ccc3nc(N)nc(N)c3c2C)cc(OC)c1OC", "note": "[TRIMETREXATE]", "IC50": 260}
    ]},
    {"molecular_target": "T2, Bifunctional dihydrofolate reductase-thymidylate synthase", "details": "not given", "units": {"IC50": "nM"}, "values": [
      {"smiles": "COc1cc(CN(C)c2ccc3nc(N)nc(N)c3c2)cc(OC)c1", "IC50": 9.3},
      {"smiles": "COc1cc(CNc2ccc3nc(N)nc(N)c3c2)cc(OC)c1OC", "IC50": 84},
      {"smiles": "COc1cc(OC)c(OC)cc1CNc1ccc2nc(N)nc(N)c2c1", "IC50": 124},
      {"smiles": "Nc1nc(N)c2cc(NCc3ccccc3)ccc2n1", "IC50": 320},
      {"smiles": "COc1ccc(CN(C)c2ccc3nc(N)nc(N)c3c2)c(OC)c1", "IC50": 39},
      {"smiles": "COc1ccc(CNc2ccc3nc(N)nc(N)c3c2)c(OC)c1", "IC50": 170},
      {"smiles": "COc1ccc(CNc2ccc3nc(N)nc(N)c3c2)c(OC)c1OC", "IC50": 190},
      {"smiles": "COc1cc(CNc2ccc3nc(N)nc(N)c3c2)cc(OC)c1", "IC50": 120},
      {"smiles": "COc1ccc(OC)c(CNc2ccc3nc(N)nc(N)c3c2)c1", "IC50": 160},
      {"smiles": "COc1ccc(CN(C)c2ccc3nc(N)nc(N)c3c2)c(OC)c1OC", "IC50": 17},
      {"smiles": "COc1ccc(OC)c(CN(C)c2ccc3nc(N)nc(N)c3c2)c1", "IC50": 30},
      {"smiles": "COc1cc(CNc2cnc3nc(N)nc(N)c3c2)cc(OC)c1OC", "IC50": 395}
    ]},
    {"molecular_target": "T5, Dihydrofolate reductase (Homo sapiens, UniProt P00374)", "T5 sequence (P00374 whole entry)": "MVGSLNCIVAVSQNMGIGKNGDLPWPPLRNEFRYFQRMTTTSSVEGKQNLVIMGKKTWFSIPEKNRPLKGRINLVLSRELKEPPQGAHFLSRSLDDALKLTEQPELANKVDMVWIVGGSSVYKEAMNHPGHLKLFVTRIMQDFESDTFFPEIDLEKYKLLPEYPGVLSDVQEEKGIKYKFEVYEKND", "details": "not given", "units": {"IC50": "nM"}, "values": [
      {"smiles": "COc1cc(CN(C)c2ccc3nc(N)nc(N)c3c2)cc(OC)c1", "IC50": 11},
      {"smiles": "COc1cc(CNc2ccc3nc(N)nc(N)c3c2)cc(OC)c1OC", "IC50": 23000},
      {"smiles": "COc1cc(OC)c(CNc2ccc3nc(N)nc(N)c3c2)c(OC)c1", "IC50": 25000},
      {"smiles": "CN(Cc1cccc2c1CCCC2)c1ccc2nc(N)nc(N)c2c1", "IC50": 27},
      {"smiles": "Nc1nc(N)c2cc(NCc3ccccc3)ccc2n1", "IC50": 2400},
      {"smiles": "COc1ccc(CN(C)c2ccc3nc(N)nc(N)c3c2)c(OC)c1", "IC50": 50},
      {"smiles": "COc1ccc(CNc2ccc3nc(N)nc(N)c3c2)c(OC)c1OC", "IC50": 27000},
      {"smiles": "COc1cc(CNc2ccc3nc(N)nc(N)c3c2)cc(OC)c1", "IC50": 28000},
      {"smiles": "COc1ccc(OC)c(CNc2ccc3nc(N)nc(N)c3c2)c1", "IC50": 28000},
      {"smiles": "COc1ccc(CN(C)c2ccc3nc(N)nc(N)c3c2)c(OC)c1OC", "IC50": 140}
    ]}
  ]
}
